Activity calls are given as the source filed them.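 Rule for the calls: active = compounds giving half or more protection of infected cells from virus-caused growth loss, again on retest; inactive = the rest.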
System: CEM cells HIV-1 protection, formazan growth assay
Test: NCI AIDS Antiviral Assay
Details: for IC50: measured here: growth of uninfected CEM cells
In short: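 Category rules: moderately active means at least 50% protection on retest, and confirmed active means 100% protection reproducibly. The underlying data came from a formazan growth assay in HIV-1-infected CEM cells.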

## C/C(CCn1[nH]c(=O)ccc1=O)=N\NC(=O)C(N)=O
  EC50: > 676 µM
  IC50: > 676 µM

## O=C(N/N=C/c1ccccc1S(=O)(=O)O)C(=O)N/N=C/c1ccccc1S(=O)(=O)O
  EC50: > 200 µM
  IC50: > 200 µM

## O=C1c2c(F)c(F)c(F)c(F)c2SC2=NCCN12
  EC50: > 20 µM
  IC50: 2 µM

## CCCCCCCCCCCc1noc2c1C(=O)C(O)CC2 (stereo not drawn)
  outcome: inactive

## NC(=O)N(O)c1cccc(Br)c1
  EC50: > 200 µM
  IC50: 145 µM

## CC1(C)S(=O)(=O)OCCOS1(=O)=O
  EC50: > 200 µM
  IC50: 110 µM

## Cn1c(Nc2ccccc2)c(C=Nc2ccccc2)c(=O)n(C)c1=O
  EC50: > 100 µM
  IC50: 53.7 µM

## CC12CP(=O)(O)CC1C2(Cl)Cl (stereo not drawn)
  EC50: > 200 µM
  IC50: > 200 µM

## CC1(C)C2CCC3CC(CCC#N)CCC3C21C#N (stereo not drawn)
  EC50: > 200 µM
  IC50: 95.5 µM

## COc1cc2c(=O)c3ccccc3oc2c(O)c1OC
  EC50: > 200 µM
  IC50: > 200 µM

## BrC1=C(Br)C2(SCCS2)[C@H]2C[C@@H]1c1ccccc12
  EC50: > 200 µM
  IC50: 8.71 µM

## N#CC(NNC(=O)Cc1ccccc1)c1cccc(O)c1 (stereo not drawn)
  EC50: > 468 µM
  IC50: 158 µM

## COc1cccc2c(=O)c3ccccc3oc12
  EC50: > 200 µM
  IC50: > 200 µM

## CNc1c2cccc(C)c2nc2c(C(=O)NCCN(C)C)cccc12
  EC50: > 0.2 µM
  IC50: 0.0191 µM

## O=C1C=C(C23CC4CC(CC(C4)C2)C3)Nc2ccccc2N1
  EC50: > 200 µM

## CCOC(=O)C(=O)C1C(=O)N(C)C2(C)CC1c1ccccc1O2 (stereo not drawn)
  EC50: > 200 µM
  IC50: > 200 µM

## COC(=O)[C@H](Cc1ccccc1)NC(=O)NCCN(CCNC(=O)N[C@@H](Cc1ccccc1)C(=O)OC)C(=O)N[C@@H](Cc1ccccc1)C(=O)OC
  EC50: > 200 µM
  IC50: 33.9 µM

## COc1cc2c(cc1OC)CN1CCc3cc(OC)c(OC)cc3[C@@H]1C2
  EC50: > 200 µM
  IC50: 145 µM

## O=C(Nc1cc2c(=O)[nH]c3ccccc3c2oc1=O)c1cnccn1
  EC50: > 100 µM
  IC50: > 100 µM

## COc1ccc(-c2cc(C(=O)O)c3cc4ccccc4cc3n2)cc1Br
  outcome: inactive

## COC(=O)C1(C)CCCC2(C)C1CCC1(O)C(O)C(C(C)C)=CCC21 (stereo not drawn)
  EC50: > 200 µM
  IC50: 56.2 µM

## COc1ccc(-c2cc(=O)cc(C(N)=O)o2)cc1
  EC50: > 200 µM
  IC50: > 200 µM

## CCOc1ccccc1NC(=O)C(=O)C(C(=O)c1ccc2ccccc2c1)C1OC(=O)c2ccccc21 (stereo not drawn)
  EC50: > 72.4 µM
  IC50: 31.6 µM

## Cc1ccc(C)c2sc3cc(=O)ccc-3nc12
  EC50: > 107 µM
  IC50: > 107 µM

## COCN1C(=O)C2CC(/C=C/C(N)=O)=CN2C(=O)c2ccccc21 (stereo not drawn)
  outcome: inactive

## CC(C)/C(Cl)=N/OC(=O)Nc1ccc(Br)cc1
  EC50: > 20 µM
  IC50: 3.72 µM

## Cn1c(=O)n2c(=O)n(C)c(=O)n2c1=O
  EC50: > 200 µM
  IC50: > 200 µM

## C=C1C(=O)OC2C1C(OC(=O)/C(=C/C)COC(C)=O)CC1(CO1)C1C(OC(=O)/C(=C/C)CO)C=C(C)C21 (stereo not drawn)
  outcome: inactive

## Nc1ccc(Nc2cc(=O)[nH]c(=O)[nH]2)cc1Cl
  EC50: > 200 µM
  IC50: > 200 µM

## CNc1ccccc1S(=O)(=O)c1ccccc1C(F)(F)F
  EC50: > 200 µM
  IC50: 17 µM

## CCn1ncc(N=O)c1N
  EC50: > 200 µM
  IC50: > 200 µM

## C(=C1\CCC/C(=C/c2ccccc2)C1=NNc1ccccc1)/c1ccccc1
  EC50: > 14.5 µM
  IC50: > 14.5 µM

## Cc1oncc1NC1=CC(=O)C(=O)c2ccccc21
  EC50: > 200 µM
  IC50: 8.51 µM

## COc1cc(C2c3cc4c(cc3OC(N3CCOCC3)C2C)OCO4)cc(OC)c1OC (stereo not drawn)
  EC50: > 200 µM
  IC50: 1.86 µM

## O=c1oc2ccccc2c(O)c1C(c1ccc2c(c1)OCO2)N1CCCC1 (stereo not drawn)
  EC50: > 200 µM
  IC50: 93.3 µM

## Cc1cc(N)c(C)c2c1[nH]c1ccc(O)cc12
  EC50: > 302 µM
  IC50: 28.8 µM

## CCOC(=O)c1ccc(-c2onc(C)c2Br)[nH]1
  EC50: > 200 µM
  IC50: 39.8 µM

## Clc1ccc(CN2CCCN(Cc3ccc(Cl)c(Cl)c3)S2)cc1Cl
  EC50: > 61.7 µM
  IC50: > 61.7 µM

## Cn1cc([N+](=O)[O-])cc1C(=O)Nc1ccc(S(=O)(=O)O)c2cc(S(=O)(=O)O)ccc12
  EC50: > 501 µM
  IC50: > 501 µM

## Nc1ncnc2c1ncn2CC(O)C(=O)O (stereo not drawn)
  outcome: inactive

## CC(=O)c1cccc(NC(=O)C(=O)C(C2OC(=O)c3ccccc32)[N+](=O)[O-])c1 (stereo not drawn)
  EC50: > 468 µM
  IC50: > 468 µM

## O=C1OC(C2Cc3ccc4ccccc4c3C2=O)c2ccccc21 (stereo not drawn)
  EC50: > 100 µM
  IC50: 74.1 µM

## Cc1cn2c(C)csc2c1P(=O)(OC(C)C)OC(C)C
  EC50: > 200 µM
  IC50: 158 µM

## COc1cccc2c1CCc1c(-c3ccc(F)cc3)cc(-c3ccc4ccccc4n3)nc1-2
  EC50: > 200 µM
  IC50: > 200 µM

## CC1(CO)CCCC1NCCNC1CCCC1(C)CO (stereo not drawn)
  EC50: > 182 µM
  IC50: 107 µM

## Cc1ccc(S(=O)(=O)SCC(=O)c2ccc(Br)cc2)cc1
  EC50: 6.92 µM
  IC50: 93.3 µM

## COc1ccccc1/C=C1/Sc2scc(CC(=O)Nc3ccccc3)[n+]2C1=O
  outcome: inactive
  IC50: 28.8 µM

## CC(=O)O[C@H]1CC[C@H]2[C@@H]3CCC4=C(C(=O)C=CC4(C)OC(C)=O)[C@H]3CC[C@]12C (stereo partly drawn)
  EC50: > 200 µM
  IC50: 13.8 µM

## CC(C)N(C(=O)C12C3C4C5(C(=O)O)C(C1C35I)C42C(=O)O)C(C)C (stereo not drawn)
  EC50: > 562 µM
  IC50: > 562 µM

## CC(=O)OCC1OC(n2c(N)c(C#N)c(-c3ccccc3)c(C#N)c2=S)C(OC(C)=O)C(OC(C)=O)C1OC(C)=O (stereo not drawn)
  EC50: > 200 µM
  IC50: > 200 µM

## O=C(O)C1CCC(c2ccc(Oc3ccccc3)cc2)=N1 (stereo not drawn)
  EC50: > 200 µM
  IC50: > 200 µM

## c1cc2nnc1SCCSCCSc1ccc(nn1)SCCSCCS2
  EC50: > 200 µM
  IC50: > 200 µM

## Cn1c(=O)c2c(nc3sc4ncccc4c(=O)n32)n(C)c1=O
  EC50: > 151 µM
  IC50: > 151 µM

## COc1ccc2nc3cccc([N+](=O)[O-])c3c(NCCN(C)C)c2c1
  EC50: > 2 µM
  IC50: 0.0977 µM

## COc1cc2[nH]c3c(c2cc1OC)CCN[C@@]31CC[C@@]2(CC3c4c(cc(OC)c(O)c42)CCN3C)C[C@@H]1OC (stereo partly drawn)
  outcome: inactive

## COc1cc2c(oc(=O)c3cc4cc([Si](C)(C)C)oc4c(OC)c32)c2cccc(O)c12
  EC50: > 1.2 µM
  IC50: > 1.2 µM

## O=C1OC2C(O)COC2(O)C1(O)Cc1cc(O)c(O)c(Br)c1Br (stereo not drawn)
  outcome: inactive

## CC(C)C1CC(CO)(CNc2cc(Cl)nc(N)n2)C1 (stereo not drawn)
  EC50: > 20 µM
  IC50: 19.5 µM

## COCN(C)c1nc(N(C)C)nc(N(C)C)n1
  EC50: > 100 µM
  IC50: 70.8 µM

## CC1(CCCO)CCCCCCCCCC(C)(CCCO)C1=O (stereo not drawn)
  EC50: > 200 µM
  IC50: 115 µM

## CN1C(=O)/C(=c2\sc3nc4ccccc4n3c2=O)c2ccccc21
  outcome: inactive

## c1ccc(C2OC23CCCCC3)cc1 (stereo not drawn)
  EC50: > 200 µM
  IC50: > 200 µM

## COc1ccc(NC(=O)CC(=O)n2nc(-c3ccccc3)c(N=Nc3ccccc3C)c2-c2ccccc2)cc1
  EC50: > 13.5 µM
  IC50: > 13.5 µM

## O=C1C(c2ccc(Cl)cc2)=[N+]([O-])c2ccccc21
  outcome: inactive

## O=C1CCCC(=O)NNC(=O)NCCCCCCNC(=O)NN1
  EC50: > 30.2 µM
  IC50: > 30.2 µM

## O=C(NC12CC3CC(CC(F)(C3)C1)C2)c1ccccc1
  EC50: > 132 µM
  IC50: 52.5 µM

## C/C(CC(=O)Nc1ccc(Cl)cc1)=N\NC(N)=S
  EC50: > 871 µM
  IC50: 123 µM

## [O-]c1on[n+]2c1c(Nc1ccc(Cl)cc1)nc1ccccc12
  EC50: > 115 µM
  IC50: > 115 µM

## NC(CSS(=O)(=O)O)=NCCCCC1CCCCC1
  EC50: > 200 µM
  IC50: 30.9 µM

## CO[C@H](C(=O)O[C@H]1C(=O)N2CC[C@@H]3CCC[C@H]1C32C)c1ccccc1 (stereo partly drawn)
  EC50: > 724 µM
  IC50: 437 µM

## COP(=O)(OC)C(NC(=O)C(F)(F)F)(c1ccccc1)C(F)(F)F (stereo not drawn)
  EC50: > 200 µM
  IC50: > 200 µM

## O=C1N[C@H]2[C@H](CS[C@H]2CCCCC(=O)N(CCP(c2ccccc2)c2ccccc2)CCP(c2ccccc2)c2ccccc2)N1
  EC50: > 14.8 µM
  IC50: > 14.8 µM

## O=C1C=CC(=CC=C2C=CN(CCCCCCCCCCC(=O)NCCCCCCCCCCCC(=O)O)C=C2)C=C1
  outcome: inactive

## ClCc1ccc2ccc3ccc(CCl)nc3c2n1
  EC50: > 200 µM
  IC50: 1.51 µM

## COc1cc2c(c(OC)c1OC)-c1cccc(=O)cc1C(NC(C)=O)CC2 (stereo not drawn)
  EC50: > 2 µM
  IC50: 0.0389 µM

## COC(OC)c1cc2c(cc1C=O)OCO2
  outcome: inactive

## COC[C@@]12CCC(OC)C34[C@@H]5C[C@@]6(O)C(OC(=O)c7ccccc7)[C@@H]5[C@](OC(C)=O)(C[C@@H]6OC)[C@@H](C(OC)[C@@H]31)[C@@H]4N(C=O)C2 (stereo partly drawn)
  outcome: inactive

## Nc1nc2nn(-c3ccc(C(=O)O)cc3)nc2c(=O)[nH]1
  EC50: > 200 µM
  IC50: > 200 µM

## CC1C=C(OC(=O)c2ccccc2)C(=O)C(n2cc(F)c(=O)[nH]c2=O)O1 (stereo not drawn)
  outcome: inactive

## O=[N+]([O-])/C(Cl)=C(/C(Cl)=C(Cl)Cl)N1CCCCC1
  EC50: > 200 µM
  IC50: 12.3 µM

## CCC1(CC)O[C@H]([C@@H](O)CCc2ccccc2O)[C@@H]([C@@H](O)CCc2ccccc2O)O1
  EC50: > 200 µM
  IC50: 33.1 µM

## C=CC(CCC(C)O)[Si](C)(C)C (stereo not drawn)
  EC50: > 977 µM
  IC50: > 977 µM

## CC(C)OP(=O)(OC(C)C)C(C(C)C)N(C)C(N)=NC#N (stereo not drawn)
  EC50: > 200 µM
  IC50: > 200 µM

## CC1(C)CC(=O)C(/C=N/c2nc(-c3ccc(Br)cc3)cs2)=C(O)C1
  EC50: > 200 µM
  IC50: 115 µM

## CCOC(=O)C(C)Sc1nnc(COc2ccc(Cl)cc2)n1-c1ccccc1 (stereo not drawn)
  EC50: > 100 µM
  IC50: 47.9 µM

## COC(=O)CCC(NC(=O)OC(C)(C)C)C(=O)NC(Cc1ccc(NC(=O)CCCC(C)=O)cc1)C(=O)NC(CCC(=O)OC)C(=O)OC (stereo not drawn)
  EC50: > 100 µM
  IC50: > 100 µM

## CC(=O)OCC12C(OC(C)=O)C[C@@H](C)C3(CC(c4ccoc4)OC3=O)C1CCC(O)C21CO1 (stereo partly drawn)
  EC50: > 200 µM
  IC50: > 200 µM

## CC(=O)[O-].N.N.N.N.[Co+3].[O-][Cl+3]([O-])([O-])[O-].[OH3+]
  outcome: inactive

## COc1cnc([C@H]2CCC3[C@@H]4CC=C5C[C@@H](OC(=O)CCC(=O)O)CC[C@]5(C)C4CC[C@@]32C)s1 (stereo partly drawn)
  EC50: > 51.3 µM
  IC50: 29.5 µM

Source: PubChem BioAssay AID179 (DTP/NCI, 2004)
